Read-outs that look alike come from different tables or passages of the source. Where a SMILES comes first, the peptide text is derived from it. [ ]: non-standard residue; d: D form. The star is where a group is joined. Sta = CC(C)C[C@H](N)[C@@H](O)CC(=O)O; Mercaptoacetyl = O=C(CS)*; AEEA = NCCOCCOCC(=O)O
Tests used:
[1] = parameters: method as in PMID 36980517; settings: phase I clinical study; cited from earlier work
[2] = target: T1, GRPR on PC-3 cells (Homo sapiens, UniProt P30550); assay: In vitro binding specificity assay on PC-3 cells, with and without pre-blocking; settings: 1 nM
T1 construct: endogenous in cells; host or cells: PC-3 cells
Method: The radiolabeled peptide binding to GRPR was tested in PC-3 cells (GRPR +) by the addition of 1 nM of [^99mTc]Tc-maSSS-PEG2-RM26 to the cells (~10^6 cells, in triplicates), with and without pre-blocking of receptors, by the addition of 1 µM of NOTA-PEG2-RM26 (10 min at room temperature). After incubation at 37 °C for 1 h, the cells were treated with trypsin-EDTA, collected, and measured for their radioactivity content.
(§1) Randomly selected vials were stored at 4 °C at our laboratory for long-term testing. Within 18 months of storage, the vials were radiolabeled under the same conditions mentioned earlier. Additionally, the GRPR-binding in vitro was tested on a different batch of PC-3 cells, following the same protocol mentioned earlier. The in vivo GRPR-targeting properties of [^99mTc]Tc-maSSS-PEG2-RM26 were tested on PC-3 tumor-bearing Balb/c nu/nu mice (the cells (6 × 10^6 cells/mouse) were inoculated into the mice 4 weeks prior to the experiment). On the day of the experiment, when palpable tumors developed, a group of mice (n = 4) was injected with [^99mTc]Tc-maSSS-PEG2-RM26 (30 kBq/40 pmol) and another group (n = 4) was additionally co-injected with NOTA-PEG2-RM26 (5 nmol) to block GRPR. The mice were euthanized 1 h post-injection and the organs of interest were collected, weighed, and measured for their radioactivity content.

[3] = target: GRPR; parameters: method as in PMID 33573232; settings: cited from earlier work
[4] = test system: GRPR; assay: Ex vivo biodistribution / in vivo GRPR targeting in PC-3 tumor-bearing mice; parameters: species or system Balb/c nu/nu mice; settings: 1 h pi, kit stored 18 months, p < 0.001, n = 4
Method: as §1

[5] = as above; parameters: species or system Balb/c nu/nu mice; settings: mouse, total radioactivity, 1 h pi, n = 4; for tissue to tissue ratio at 1 h: 40 pmol, ± SD
Method: as §1

[6] = target: T2, GRPR (Homo sapiens, UniProt P30550); assay: as above; parameters: species or system Balb/c nu/nu mice; settings: 1 h pi, kit stored 18 months, p < 0.001, n = 4
T2 construct: endogenous in cells; host or cells: PC-3 xenograft tumours in Balb/c nu/nu mice
Method: as §1

T1 sequence (P30550 whole entry): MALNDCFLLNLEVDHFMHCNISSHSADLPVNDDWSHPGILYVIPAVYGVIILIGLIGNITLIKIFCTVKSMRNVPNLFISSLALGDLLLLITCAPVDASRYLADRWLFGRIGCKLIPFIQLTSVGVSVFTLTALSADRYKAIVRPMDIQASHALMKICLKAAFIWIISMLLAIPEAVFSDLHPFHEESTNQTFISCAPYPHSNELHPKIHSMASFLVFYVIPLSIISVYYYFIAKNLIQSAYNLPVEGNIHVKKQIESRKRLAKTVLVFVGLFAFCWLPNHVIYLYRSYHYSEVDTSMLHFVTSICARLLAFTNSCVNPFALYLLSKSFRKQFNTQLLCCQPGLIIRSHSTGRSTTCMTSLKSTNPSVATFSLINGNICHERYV
T2 sequence (P30550 whole entry): as above

- Cell-associated radioactivity, non-blocked versus pre-blocked receptors ([2]; freshly prepared kit, 1 h at 37 °C, pre-blocking with 1 µM NOTA-PEG2-RM26, p < 0.0001, n = 3): significant difference
- Binding to non-blocked GRPR versus pre-blocked GRPR on PC-3 cells ([2]; kit stored for 18 months, purified with Sep-Pak, pre-blocking with 1 µM NOTA-PEG2-RM26): significantly higher
- tissue uptake at 1 h ([5]; Balb/c nu/nu, blood, PC-3 xenografts, 40 pmol / 30 kBq co-injected with 5 nmol NOTA-PEG2-RM26, average ± SD, read-out: Uptake in blood, blocked): 0.3 ± 0.4 %ID/g
- tissue uptake at 1 h ([5]; Balb/c nu/nu, bone, PC-3 xenografts, 40 pmol / 30 kBq co-injected with 5 nmol NOTA-PEG2-RM26, average ± SD, read-out: Uptake in bone, blocked): 0.042 ± 0.009 %ID/g
- tissue uptake at 1 h ([5]; Balb/c nu/nu, kidneys, PC-3 xenografts, 40 pmol / 30 kBq co-injected with 5 nmol NOTA-PEG2-RM26, average ± SD, read-out: Uptake in kidneys, blocked): 5 ± 0.6 %ID/g
- tissue uptake at 1 h ([5]; Balb/c nu/nu, liver, PC-3 xenografts, 40 pmol / 30 kBq co-injected with 5 nmol NOTA-PEG2-RM26, average ± SD, read-out: Uptake in liver, blocked): 1.7 ± 0.4 %ID/g
- tissue uptake at 1 h ([5]; Balb/c nu/nu, muscle, PC-3 xenografts, 40 pmol / 30 kBq co-injected with 5 nmol NOTA-PEG2-RM26, average ± SD, read-out: Uptake in muscle, blocked): 0.032 ± 0.008 %ID/g
- tissue uptake at 1 h ([5]; Balb/c nu/nu, pancreas, PC-3 xenografts, 40 pmol / 30 kBq co-injected with 5 nmol NOTA-PEG2-RM26, average ± SD, read-out: Uptake in pancreas, blocked): 1.4 ± 0.1 %ID/g
- tissue uptake at 1 h ([5]; Balb/c nu/nu, spleen, PC-3 xenografts, 40 pmol / 30 kBq co-injected with 5 nmol NOTA-PEG2-RM26, average ± SD, read-out: Uptake in spleen, blocked): 0.13 ± 0.06 %ID/g
- tissue to tissue ratio at 1 h ([5]; Balb/c nu/nu, tumor and blood, PC-3 xenografts, read-out: Tumor-to-blood ratio, non-blocked group): 30 ± 4
- tissue to tissue ratio at 1 h ([5]; Balb/c nu/nu, tumor and bone, PC-3 xenografts, read-out: Tumor-to-bone ratio, non-blocked group): 78 ± 42
- tissue to tissue ratio at 1 h ([5]; Balb/c nu/nu, tumor and kidneys, PC-3 xenografts, read-out: Tumor-to-kidneys ratio, non-blocked group): 1.3 ± 0.2
- tissue to tissue ratio at 1 h ([5]; Balb/c nu/nu, tumor and liver, PC-3 xenografts, read-out: Tumor-to-liver ratio, non-blocked group): 2 ± 0.4
- tissue to tissue ratio at 1 h ([5]; Balb/c nu/nu, tumor and muscle, PC-3 xenografts, read-out: Tumor-to-muscle ratio, non-blocked group): 125 ± 50
- tissue to tissue ratio at 1 h ([5]; Balb/c nu/nu, tumor and pancreas, PC-3 xenografts, read-out: Tumor-to-pancreas ratio, non-blocked group): 1.1 ± 0.2
- tissue to tissue ratio at 1 h ([5]; Balb/c nu/nu, tumor and spleen, PC-3 xenografts, read-out: Tumor-to-spleen ratio, non-blocked group): 51 ± 18
- tissue uptake at 1 h ([5]; Balb/c nu/nu, tumor, PC-3 xenografts, 40 pmol / 30 kBq co-injected with 5 nmol NOTA-PEG2-RM26, average ± SD, read-out: Uptake in tumor, blocked): 0.89 ± 0.07 %ID/g
- tissue uptake at 1 h ([5]; blood, Balb/c nu/nu mice with PC-3 xenografts, 40 pmol / 30 kBq, kit stored 18 months, average ± SD, read-out: Uptake in blood, non-blocked): 0.3 ± 0.2 %ID/g
- tissue uptake at 1 h ([5]; bone, Balb/c nu/nu mice with PC-3 xenografts, 40 pmol / 30 kBq, kit stored 18 months, average ± SD, read-out: Uptake in bone, non-blocked): 0.09 ± 0.05 %ID/g
- tissue uptake at 1 h ([5]; kidneys, Balb/c nu/nu mice with PC-3 xenografts, 40 pmol / 30 kBq, kit stored 18 months, average ± SD, read-out: Uptake in kidneys, non-blocked): 5 ± 0.4 %ID/g
- tissue uptake at 1 h ([5]; liver, Balb/c nu/nu mice with PC-3 xenografts, 40 pmol / 30 kBq, kit stored 18 months, average ± SD, read-out: Uptake in liver, non-blocked): 2.9 ± 0.8 %ID/g
- tissue uptake at 1 h ([5]; muscle, Balb/c nu/nu mice with PC-3 xenografts, 40 pmol / 30 kBq, kit stored 18 months, average ± SD, read-out: Uptake in muscle, non-blocked): 0.05 ± 0.02 %ID/g
- tissue uptake at 1 h ([5]; pancreas, Balb/c nu/nu mice with PC-3 xenografts, 40 pmol / 30 kBq, kit stored 18 months, average ± SD, read-out: Uptake in pancreas, non-blocked): 6 ± 1 %ID/g
- tissue uptake at 1 h ([5]; spleen, Balb/c nu/nu mice with PC-3 xenografts, 40 pmol / 30 kBq, kit stored 18 months, average ± SD, read-out: Uptake in spleen, non-blocked): 0.13 ± 0.05 %ID/g
- tissue uptake at 1 h ([5]; tumor, Balb/c nu/nu mice with PC-3 xenografts, 40 pmol / 30 kBq, kit stored 18 months, average ± SD, read-out: Uptake in tumor, non-blocked): 6 ± 1 %ID/g
- Difference in PC-3 tumor uptake between non-blocked and blocked groups [6]: 6 fold
SMILES: CC(C)C[C@H](NC(=O)C[C@H](O)[C@H](CC(C)C)NC(=O)[C@H](Cc1c[nH]cn1)NC(=O)CNC(=O)[C@@H](NC(=O)[C@H](C)NC(=O)[C@H](Cc1c[nH]c2ccccc12)NC(=O)[C@H](CCC(N)=O)NC(=O)[C@@H](Cc1ccccc1)NC(=O)COCCOCCNC(=O)[C@H](CO)NC(=O)[C@H](CO)NC(=O)[C@H](CO)NC(=O)CS)C(C)C)C(N)=O [[^99mTc]Tc-maSSS-PEG2-RM26, metal not drawn] (Mercaptoacetyl-SSS[AEEA][dF]QWAVGH[Sta]L-NH2)
- Absorbed doses in healthy organs and tissues [1]: low absorbed doses
- Tolerability of single injections [1]: well tolerated
- Equilibrium dissociation constant [3]: low nanomolar range
- Difference in pancreatic uptake between non-blocked and blocked groups [4]: 4 fold

— article PMC10178091, “The GRPR Antagonist [^99mTc]Tc-maSSS-PEG2-RM26 towards Phase I Clinical Trial: Kit Preparation, Characterization and Toxicity” (Diagnostics, 2023)
